Laboratory results taken from article PMC11470999, “Penfluridol inhibits melanoma growth and metastasis through enhancing von Hippel‒Lindau tumor suppressor‐mediated cancerous inhibitor of protein phosphatase 2A (CIP2A) degradation” (MedComm, 2024).
pKd: −log10 of the molar value.

How the values were obtained:
[1] = target: T1, Hu‐CIP2A (1‐560) (Homo sapiens, UniProt Q8TCG1); test: isothermal titration calorimetry, one-site model; format: binding; settings: read-out: dissociation constant
T1 construct: recombinant purified N-terminal armadillo repeat domain, residues 1-560 of 905
From the text: isothermal titration calorimetry, one-site model on Hu‐CIP2A (1‐560) | A strong binding affinity between PF and CIP2A protein was observed, with a dissociation constant

[2] = target: T2, CIP2A (Homo sapiens, UniProt Q8TCG1); test: DARTS (proteinase K, immunoblot) and cellular thermal shift assay; format: cell-based; settings: A375 cells treated with PF (DARTS); melanoma cells (CETSA)
T2 construct: endogenous full-length protein in A375 human melanoma cells / lysate; 905 residues

OC1(c2ccc(Cl)c(C(F)(F)F)c2)CCN(CCCC(c2ccc(F)cc2)c2ccc(F)cc2)CC1 [PF, Penfluridol]
pKd [1]: 5.13
DARTS (proteinase K, immunoblot) and cellular thermal shift assay [2]: PF protects CIP2A from proteinase K‐induced protein hydrolysis
